The record followed here is PubChem BioAssay AID179 (DTP/NCI, 2004).

Active and inactive are the calls of the source.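 The calls were made as follows: active = compounds giving half or more protection of infected cells from virus-caused growth loss, again on retest; inactive = the rest.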 Where a SMILES comes first, the peptide text is derived from it. The star is where a group is joined. Cbz = O=C(OCc1ccccc1)*

The subject of the test is CEM cells HIV-1 protection, formazan growth assay. The experiment in a line: NCI AIDS Antiviral Assay. The conditions noted are these: for IC50: measured here: growth of uninfected CEM cells. The gist of the method:
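Category rules: moderately active means at least 50% protection on retest, and confirmed active means 100% protection reproducibly. The underlying data came from a formazan growth assay in HIV-1-infected CEM cells.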

On to `Cc1cc(=O)c2cc3nc(-c4cccnc4)oc3c(Br)c2o1`, for which the EC50 was 182 µM and the IC50 is over 200 µM.
For the molecule `CC(=O)c1ccc(NC(=O)/C(Cc2ccccn2)=N/NC(=O)C[N+](C)(C)C)cc1`, the outcome was inactive.
For the molecule `CCOP(OCC)SSCn1nc2ccc3ccccc3n2c1=O`, the EC50 is over 200 µM and the IC50 turned out to be 70.8 µM.
Consider `Cc1nc(-n2nc(-c3ccccc3)cc2-c2ccccc2)sc1C(=O)/C=C/c1ccc([N+](=O)[O-])cc1`, for which the EC50 is over 38 µM and the IC50 stood at 30.9 µM.
Consider `Cn1ccnc1.Cn1ccnc1.Cn1ccnc1.Cn1ccnc1.[O-][Cl+3]([O-])([O-])[O-].[Pt+2]`, for which the EC50 is over 200 µM and the IC50 was over 200 µM.
On to `CN(Cc1c2ccccc2cc2ccccc12)S(=O)(=O)c1ccc(-c2c3nc(c(-c4ccc(S(=O)(=O)N(C)Cc5c6ccccc6cc6ccccc56)cc4)c4ccc([nH]4)c(-c4ccc(S(=O)(=O)N(C)Cc5c6ccccc6cc6ccccc56)cc4)c4nc(c(-c5ccc(S(=O)(=O)N(C)Cc6c7ccccc7cc7ccccc67)cc5)c5ccc2[nH]5)C=C4)C=C3)cc1`, for which the EC50 was over 100 µM and the IC50 was over 100 µM.
With `ON=C(CC(O)(C(F)(F)Cl)C(F)(F)Cl)CC(O)(C(F)(F)Cl)C(F)(F)Cl`, the EC50 was over 200 µM and the IC50 was 8.71 µM.
For `O=C(Nc1ccccc1CCl)Nc1ccccc1CCl` (tested in a mixture with another compound), the EC50 is over 200 µM and the half-maximal inhibitory concentration (IC50) was determined as 41.7 µM.
With `C(#C[PH+](c1ccccc1)c1ccccc1)c1ccccc1.C(#C[PH+](c1ccccc1)c1ccccc1)c1ccccc1.C(#C[PH+](c1ccccc1)c1ccccc1)c1ccccc1.[C-]#[O+].[C-]#[O+].[C-]#[O+].[W]`, the EC50 is over 0.676 µM and the IC50 is over 0.676 µM.
Consider `O=C1CCCCC1CN1CCOCC1` (stereo not given), for which the result was inactive.
For `CC(=O)Nc1ccc(Sc2nnc(NC(C)=O)s2)cc1`, the EC50 was over 32.4 µM and the concentration for half-maximal inhibition (IC50) was over 32.4 µM.
For `COc1ccc(/C(=C/n2ccnc2)C(O)c2ccc(OC)c(OC)c2)cc1OC` (stereo not given), the EC50 is over 126 µM and the IC50 was over 126 µM.
With `N#CCCN(CCC#N)c1ccc(/C=C2\N=C(c3ccccc3)N(NC(=O)c3ccncc3)C2=O)cc1`, the EC50 is over 200 µM and the IC50 was determined as 191 µM.
In the case of `COC(=O)CNC(=O)C(NC(=O)C1CCCN1C(=O)OCc1ccccc1)C(C)C` (stereo not drawn) (Cbz-Pro-Val-Gly-OMe; configuration not given here), the EC50 was over 224 µM and the IC50 was 37.2 µM.
Regarding `CN(C)c1nc(N(C)C)nc(N(C)CN(C)c2nc(N(C)C)nc(N(C)C)n2)n1`, the EC50 was over 50.1 µM and the IC50 was over 50.1 µM.
Regarding `CC1(C)CC(=O)C(/C=N/C(=S)Nc2ccc(S(N)(=O)=O)cc2)=C(O)C1`, the EC50 is over 200 µM and the IC50 is over 200 µM.
On to `CC(NC1=NCCO1)c1ccco1` (stereo not given), for which the EC50 was over 200 µM and the 50% inhibitory concentration (IC50) is over 200 µM.
Take `COc1ccc2nc3cc([N+](=O)[O-])ccc3c(NNc3ccc(Cl)cc3)c2c1`: the EC50 was over 200 µM and the IC50 amounted to 33.1 µM.
In the case of `COc1cc2c(cc1OC)C(=O)c1nccc3ccc(OC)c(c13)O2`, the EC50 is over 53.7 µM and the IC50 was determined as 43.7 µM.
As for `COc1ccc(/C(C)=N/NC(=O)CC(=O)N(C(=O)c2ccccc2)c2ccc(C)cc2)cc1`, the EC50 was over 16.2 µM and the IC50 is over 16.2 µM.
Take `COC(=O)c1cc(C(=CCCN=[N+]=[N-])c2cc(Cl)c(OC)c(C(=O)OC)c2)cc(Cl)c1OC`: the EC50 is 33.1 µM and the IC50 is 34.7 µM.
As for `COc1cccc(CCn2c(N)c(-c3ccccc3)c3ccc([N+](=O)[O-])cc3c2=O)c1`, the EC50 is over 200 µM and the IC50 is 7.41 µM.
In the case of `COc1cc(C)cc2c(-c3c(O)cc(O)c4c3C[C@H](C)N[C@H]4C)cc(-c3cc(-c4c(O)cc(O)c5c4C[C@H](C)N[C@H]5C)c4cc(C)cc(OC)c4c3O)c(O)c12`, the EC50 is 14.1 µM and the IC50 is 95.5 µM.
For `CC(=O)C(=Cc1cccc(C#N)c1)C(C)=O` the same measures were over 63.1 µM and 34.7 µM.
Turning to `CCCCn1c(=O)c(N=O)c(N)n(CC)c1=O`, the EC50 is over 200 µM and the IC50 turned out to be 174 µM.
In the case of `C=C1C(=O)OC2CC(C)C3C=CC(=O)C3CC12` (stereo not given), the EC50 is over 200 µM and the IC50 came out at 0.537 µM.
Consider `O=c1[nH]c(=O)n(C2OC(CO)C(O)C2O)cc1Oc1ccccc1` (stereo not given), for which the EC50 is over 200 µM and the half-inhibitory concentration (IC50) is over 200 µM.
With `OCCN(CCO)c1ccc2c(-c3ccccc3)cc(N(CCO)CCO)nc2n1`, the EC50 was over 200 µM and the IC50 stood at 120 µM.
Taken in the same sequence, the figures for `CCN(CC)c1ccc2c(c1)Oc1cc(N(CC)CC)ccc1C21c2ccccc2C(=O)N1c1ccccc1` were over 200 µM and over 200 µM.
As for `COC(=O)c1c2c(cc3c1CC1(Cc4cc5c(c(C(C)=O)c4C1)CCCC5)C3)CCCC2` (stereo not given), the EC50 is over 200 µM and the concentration for half-maximal inhibition (IC50) was over 200 µM.
As to `CC(C)=CCC[C@@H](C)c1c(O)c(O)c(C)c2nc3ccccc3nc12`, the EC50 was over 200 µM and the IC50 stood at 5.89 µM.
As to `CP(=O)(CCSc1ccccc1)c1ccccc1` (stereo not given), the EC50 was over 661 µM and the IC50 is over 661 µM.
In turn, `O=C(O)c1c(Br)c(Br)c(Br)c(Br)c1C1c2ccc(O)cc2Oc2cc(O)ccc21` registered an EC50 of 2.95 µM and an IC50 of 174 µM.
Take `CC(=O)Nc1ccc(-c2nnc(SCC(=O)Nc3ccccc3C)o2)cc1`: the EC50 was over 67.6 µM and the IC50 came out at 61.7 µM.
As for `CC(c1ccccc1)N1O[C@]12CC[C@@]1(C)C(CCCC13OCCO3)C2` (stereo not given in full), the outcome was inactive.
With `OC1COCOC1C(O)C1OCOCC1O` (stereo not given), the EC50 is over 200 µM and the IC50 was over 200 µM.
For `CC1CCC2N(C1)CC1C3(O)CC45OC6(O)C(O)CCC4(C)C6CCC5C3(O)CC(O)C1(O)C2(C)O` (stereo not given), the EC50 is over 490 µM and the half-maximal inhibitory concentration (IC50) is over 490 µM.
Turning to `COc1cc(O)c(C(=O)C2Cc3ccccc32)c(OC)c1` (stereo not given), the outcome was inactive.
For the molecule `O=C(N/N=C\c1cccnc1)c1ccncc1`, the EC50 is over 200 µM and the IC50 is over 200 µM.
With `COc1cccc(NC(=O)CC(=O)n2nc(-c3ccccc3)c(N=Nc3ccc(Cl)cc3)c2-c2ccccc2)c1`, the EC50 was over 200 µM and the IC50 is 11.5 µM.
For the molecule `Cc1ccc(C(=O)NC(C)C)cc1N=NN(C)C`, the EC50 was over 145 µM and the IC50 was over 145 µM.
For the molecule `COC(=O)C1CC2c3[nH]c4ccccc4c3CCN2C1` (stereo not given), the EC50 was over 275 µM and the IC50 was over 275 µM.
As for `CCN(CC)c1ccc(N=O)c(O)c1`, the EC50 is over 200 µM and the IC50 was determined as 8.71 µM.
Taken in the same sequence, the figures for `O=C(c1ccccc1)c1nnn(Cc2cccc(Cl)c2)c1C(=O)c1ccccc1` were over 12.9 µM and over 12.9 µM.
In the case of `COc1cccc(-n2cccc2)c1`, the EC50 is over 200 µM and the IC50 is over 200 µM.
As to `COC(=O)c1cc(C(=CC(=O)OC(C)(C)C)c2cc(Cl)c(OC)c(C(=O)OC)c2)cc(Cl)c1OC`, the EC50 was over 100 µM and the IC50 is 14.1 µM.
Turning to `O=C(CC1(O)C(=O)Nc2c(Cl)cc(Cl)cc21)c1ccc(Br)cc1` (stereo not given), the EC50 was over 26.9 µM and the concentration for half-maximal inhibition (IC50) was found to be 15.8 µM.
Take `CCC(=O)NC(Nc1ccc(O)cc1)(C(F)(F)F)C(F)(F)F`: the EC50 was over 200 µM and the IC50 worked out at 46.8 µM.
Taken in the same sequence, the figures for `CO/C(CO)=C1\CC2(OC1=O)[C@@H]1O[C@@H]1C1(O)[C@H]3C(=O)O[C@@H]([C@@H](OC)C21C)[C@@]3(O)C(C)C` (stereo not given in full) were over 407 µM and over 407 µM.
For `CC(=O)OC1CN2CC[C@H](O)C2C(O)[C@@H]1O` (stereo not given in full) the same measures were 41.7 µM and 1070 µM.
As for `CC1=NC(=Cc2ccc(Cl)cc2)C(=O)N1n1c(-c2ccccc2)nc2ccccc2c1=O`, the EC50 is over 200 µM and the IC50 stood at 75.9 µM.
Take `BrCc1cccc(C[P+](c2ccccc2)(c2ccccc2)c2ccccc2)c1`: the EC50 was over 200 µM and the IC50 came to 1.17 µM.
Take `CCOC(=O)c1cnc2c(ccc3[nH]cccc32)c1=O`: the EC50 is over 26.9 µM and the IC50 was over 26.9 µM.
For `O=C(O)c1ccc(CS(=O)(=O)c2ccccc2)c([N+](=O)[O-])c1`, the EC50 is over 776 µM and the IC50 was found to be 575 µM.
As for `Cc1cc(=O)[nH]c2cc(NC(=O)C(CCCN=C(N)N)NC(=O)OCc3ccccc3)ccc12` (stereo not given), the EC50 is over 200 µM and the IC50 is over 200 µM.
As for `CN(C)c1ccc(/C=C\C#N)cc1`, the EC50 was over 97.7 µM and the IC50 is over 97.7 µM.
As to `O=[N+]([O-])c1cc(/C=N\NS(=O)(=O)c2ccc(Cl)cc2)c(O)c([N+](=O)[O-])c1`, the EC50 was over 617 µM and the IC50 was determined as 34.7 µM.
Taken in the same sequence, the figures for `CCOC(=O)n1ccc2c(C(=O)OC)c(C(=O)OC)cc(/C(=C/C(=O)OC)C(=O)OC)c21` were over 151 µM and 102 µM.
In the case of `CN(C)Cc1c(O)ccc2ccccc12`, the EC50 was over 468 µM and the half-maximal inhibitory concentration (IC50) worked out at 245 µM.
With `COc1cc(OC)c(C2c3cc4c(cc3OC(N3CCOCC3)C2C)OCO4)c(OC)c1` (stereo not given), the EC50 is over 200 µM and the IC50 worked out at 11.2 µM.
Take `COc1ccc(C2(C)OC(=O)c3ccccc32)c2ccccc12` (stereo not given): the outcome was inactive.
On to `O=C(O)c1ccc([N+](=O)[O-])c2c(=O)c3ccccc3[nH]c12`, for which the outcome was inactive.
As to `O=C(Nc1ccccc1)NC(CSSCC(NC(=O)Nc1ccccc1)C(=O)O)C(=O)O` (stereo not given), the EC50 is over 200 µM and the half-maximal inhibitory concentration (IC50) was found to be 7.24 µM.
For the molecule `C=CCCC(CCC=C)(C(=O)O)C(=O)O`, the EC50 is over 1170 µM and the IC50 is over 1170 µM.
For the molecule `Cc1cc(O)c2c(c1)C(C13Cc4cc(O)c5c(c4[C@H]1C=C[C@@H](O)[C@H]3O)C(=O)c1cccc(O)c1C5=O)OC2=O` (stereo not given in full), the outcome was inactive.
Take `CCCCCCNC(=O)CCN(C(=O)O)S(=O)(=O)c1ccc(NC(=O)c2ccccc2)cc1`: the EC50 is over 380 µM and the IC50 was over 380 µM.
